Data taken from ChEMBL document CHEMBL2384977, “Synthesis and biological evaluation of novel styryl benzimidazole derivatives as probes for imaging of neurofibrillary tangles in Alzheimer's disease” (Bioorg Med Chem, 2013).

Experiments:
Details in all cases: in vivo
Brain [1] = experiment: Ratio of drug level in ddY mouse brain at 7.1 to 21.5 kBq, iv measured at 2 mins to drug level in ddY mouse brain at 7.1 to 21.5 kBq, iv measured at 60 mins; assay type: ADME, organism-based
Brain [2] = experiment: Ratio of drug level in ddY mouse brain at 64.5 kBq, iv measured at 2 mins to drug level in ddY mouse brain at 64.5 kBq, iv measured at 60 mins; assay type: ADME, organism-based
Brain [3] = experiment: Ratio of drug level in mouse brain measured at 2.5 mins to drug level in mouse brain measured at 20 mins; assay type: ADME, tissue-based

Structure (SMILES): O=C1/C(=C/c2ccc(-c3cccc([125I])c3)o2)NC(=S)N1CCc1c[nH]cn1
- Ratio (Brain [1]): 6.16

Structure (SMILES): CN(C)c1ccc(/N=N/c2nc3ccc(OCCOCCOCC[18F])cc3s2)cc1
- Ratio (Brain [2]): 1.69

Structure (SMILES): [18F]CCC1CCN(c2ccn3c(n2)nc2ccccc23)CC1
- Ratio (Brain [3]): 2.92
